Holding throughout (type): in vivo
The test system of assay [1] is plasma Vtg. Put plainly: Vtg induction with β-estradiol in Rainbow trout, plasma signature peptide quantified by HPLC-QqToF-MS/MS. The note with it: experimental (E) Rainbow trout, individual fish. How it is done:
(§1) Thirteen juvenile Rainbow trout and ten mature Atlantic salmon were kept in two 60 gallon tanks with running fresh and sea water, respectively. A 12 hour light-darkness cycle was maintained during the experiment. After one month of acclimatization, experimental fish were injected intraperitoneally four times, at one week intervals, with a dose of 10 mg of β-estradiol per kilogram of body weight using a 10 mg/mL solution in oil:acetone (9:1). Control fish were injected with the oil:acetone solution only.
(§2) One week before the first injection and one week after the last injection, fish were anesthetized using tricaine methanesulfonate (TMS) and blood samples were collected from the caudal vein using heparinized syringes and transferred in 1 mL portions into plastic tubes kept in ice. Samples were centrifuged at 3000 rpm for 5 minutes at 0° C. Plasma was separated and kept frozen at −80° C. until further analysis.
(§3) Five μL of plasma were mixed with 100 μL of denaturing buffer (8M urea, 4 mM dithiothreitol) and heated at 65° C. Then, 300 μL of a 50 mM solution of NH4HCO3 were added, followed by 95 μL of a 20 μg/mL trypsin solution. Digestion was carried out at 38° C. for 24 hours. Aliquots of 100 μL of the digested samples were mixed with 380 μL of solvent B (H2O: acetonitrile: acetic acid 70:30:0.1) and spiked with 20 μL of 5 μg/mL labeled standard solution. Finally, the samples were passed through 0.45 μm filters (Millipore Billerica Mass., USA, Cat. No. SJHV004NS) prior to injection into the HPLC.
(§4) In the case of Rainbow trout and salmon, samples and standards were analyzed with a HPLC system (HP 1050 from Hewlett-Packard, Palo Alto Calif., USA) coupled on-line to a QqToF (QStar XL, Applied Biosystems, Foster City Calif., USA) tandem mass spectrometer equipped with an ESI ion source (TurbolonSpray). […]
(§5) For quantification purposes, the extracted ion chromatograms of these diagnostic product ions were generated using a 2 Da mass range window around the selected product ions and manually integrated. […]

For assay [2], the system named is plasma Vtg. Kind of assay: Vtg induction with β-estradiol in Atlantic salmon, plasma signature peptide quantified by HPLC-QqToF-MS/MS. As to conditions: experimental (E) Atlantic salmon, individual fish. How it is done: as §1, §2, §3, §4, §5
The test system of the next assay is Vtg. Put plainly: Vtg induction with β-estradiol in Atlantic cod, assessed by SDS-PAGE. The note with it: experimental Atlantic cod serum, Coomassie blue stained gel, vs control fish. The protocol: Twelve mature female Atlantic cod fish were kept in a 60 gallon tank with a running sea water supply and fed, ad libitum. A 12 hour light-darkness cycle was maintained during the experiment. After one month of acclimatization, experimental fish were injected intraperitoneally four times, at one week intervals, a dose of 10 mg of β-estradiol per kilogram of fish body weight using a 10 mg/ml solution in oil:acetone (9:1). Control fish were injected only with the oil:acetone solution. One week after the last injection, fish were anesthetized using tricaine methanesulfonate (TMS) and bled. Blood samples were collected from the caudal vein using heparinized syringes and transferred in 1 mL portions into plastic tubes kept in ice. Twenty microliters of a 4 TIU aprotinin solution were added to each sample, homogenized and centrifuged at 3000 rpm for 5 minutes at 0° C. Plasma was separated and kept frozen at -80° C. until further analysis. Separation of Vtg by SDS-PAGE and subsequent “in-gel” digestion was performed following the procedure described in detail by […] et al. with minor modifications^65. Five microliters of thawed plasma from both experimental and control fish were mixed and loaded onto a 6% acrylamide gel and run for one hour at 180 V. The gel was stained using the colloidal Coomassie blue protocol. […]

Where [3] appears, read: converted from SP assuming 1:1 molar ratio.
[4] abbreviates: one week after last of four weekly i.p. injections of 10 mg/kg, 10 mg/kg.

The results in this text go back to patent US20090011447A1, “QUANTIFICATION OF VITELLOGENIN” (priority 2006, published 2009).

Values joined by “and” are separate entries in the source; they are usually repeats but may differ in a detail not shown here. Identical values can stand only once.

Regarding `C[C@]12CC[C@@H]3c4ccc(O)cc4CC[C@H]3[C@@H]1CC[C@@H]2O` [β-estradiol], the “Vtg Conc, After β-estradiol” value with plasma Vtg [1] is 0.351 µM and 0.487 µM and 0.343 µM and 0.278 µM and 0.375 µM and 0.471 µM and 0.120 µM and 0.225 µM and 0.113 µM and 0.344 µM and 0.460 µM; in the assay on plasma Vtg [1] (setting [3]) it was 6.389 µg/mL and 8.867 µg/mL and 6.239 µg/mL and 5.059 µg/mL and 6.830 µg/mL and 8.562 µg/mL and 2.182 µg/mL and 4.091 µg/mL and 2.057 µg/mL and 6.264 µg/mL and 8.370 µg/mL; in the assay with plasma Vtg [2], 0.383 µM and 0.591 µM and 0.268 µM and 0.399 µM and 0.330 µM; in the assay on plasma Vtg [2] (setting [3]) it was 6.967 µg/mL and 10.758 µg/mL and 4.876 µg/mL and 7.254 µg/mL and 5.997 µg/mL. In addition, the “SP Conc, After β-estradiol” value in the assay on plasma Vtg [1] (setting [4]) was 0.576 µg/mL and 0.799 µg/mL and 0.562 µg/mL and 0.456 µg/mL and 0.615 µg/mL and 0.771 µg/mL and 0.197 µg/mL and 0.368 µg/mL and 0.185 µg/mL and 0.564 µg/mL and 0.754 µg/mL; in the assay with plasma Vtg [2] (setting [4]), 0.628 µg/mL and 0.969 µg/mL and 0.439 µg/mL and 0.653 µg/mL and 0.540 µg/mL. The “Vtg induction (SDS-PAGE band)” value in the assay on Vtg is “strong induced band”.
